In patent US8357694B2, “Substituted 5,6-dihydro-6-phenylbenzo[F]isoquinolin-2-amine compounds” (ArQule, Inc., priority 2008, dated 2013):
Where a name gives a salt, the structure may show the parent alone.

Key:
[1] = biological target: T1, FGFR2 kinase (Homo sapiens, UniProt P21802, N549H); experiment: fluorescent ELISA FGFR2 kinase assay (biochemical); conditions: FGFR2 (N549H); read-out: Biochemical data (IC50-μM) FGFR2 (N549H)
T1 construct: purchased Millipore 14-742
Experimental: The enzymatic assays described herein are conducted according to the following procedures from commercially available reagents. In one, non limiting, example, a fluorescent ELISA assay is used to identify and characterize inhibitors of FGFR2 kinase as described herein. This heterogeneous assay utilizes a biotinylated peptide with a tyrosine motif as a substrate and an anti-phospho-tyrosine antibody to measure phosphorylation of the substrate. […] The reaction is incubated for 60 minutes. As the reaction proceeds, FGFR2 phosphorylates tyrosines in the peptide. […] Peptides are captured for 30 minutes at room temperature, the phosphorylation of peptides continues during this phase. The reaction is stopped by washing the streptavidin-coated plate 6 times with TBST. […] Unbound anti-phospho-tyrosine antibody is removed by washing the streptavidin-coated plate 6 times with TBST. […] Unbound secondary antibody is removed by washing the streptavidin-coated plate 6 times with TBST.

[2] = test system: SNU-16; experiment: MTS assay, SNU-16; type: cell-based; conditions: Homo sapiens, SNU-16, SNU-16; read-out: MTS cell kill data (IC50-μM) SNU-16
Experimental: (§1) Cells were maintained at 37° C., 5% CO2 in DMEM media supplemented with 1% fetal bovine serum, penicillin/streptomycin and fungizone (Invitrogen). Cells were seeded into 96-well tissue culture plates at 3000 per well and cultured at 37° C. for 18 hours. Test compounds were dissolved and diluted to 300× in DMSO then diluted 1:40 in DMEM.

[3] = test system: NCI-H1299; experiment: MTS cell kill, NCI-H1299; type: cell-based
Experimental: as §1

[4] = test system: MDA-MB-231; experiment: MTS cell kill, MDA-MB-231; type: cell-based
Experimental: as §1

[5] = test system: KATO III; experiment: MTS assay, KATO III; type: cell-based
Experimental: as §1

[6] = test system: DLD-1; experiment: MTS cell kill, DLD-1; type: cell-based
Experimental: as §1

[7] = test system: PACA-2; experiment: MTS cell kill, PACA-2; type: cell-based
Experimental: as §1

T1 sequence (P21802 456-770 N549H limits assumed): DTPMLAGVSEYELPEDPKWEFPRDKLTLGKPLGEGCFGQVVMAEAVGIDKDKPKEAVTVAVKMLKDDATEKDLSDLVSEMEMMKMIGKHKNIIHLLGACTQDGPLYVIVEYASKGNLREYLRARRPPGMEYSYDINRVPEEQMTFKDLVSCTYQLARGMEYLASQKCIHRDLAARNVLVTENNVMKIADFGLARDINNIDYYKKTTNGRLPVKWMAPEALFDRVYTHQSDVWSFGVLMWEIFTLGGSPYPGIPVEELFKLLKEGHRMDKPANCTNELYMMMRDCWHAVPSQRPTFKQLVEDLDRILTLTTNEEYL

SMILES	IC50 [1]	IC50 [2]	further results
Brc1ccc([C@H]2Cc3cnc(Nc4ccc(CCN5CCCCC5)cc4)nc3-c3ccccc32)cc1 [Example 108, (R)-6-(4-bromophenyl)-N-(4-(2-(piperidin-1-yl)ethyl)phenyl)-5,6-dihydrobenzo[h]quinazolin-2-amine hydrochloride salt]	0.354 µM		
COCCNCCc1ccc(Nc2ncc3c(n2)-c2ccccc2[C@H](c2ccc(F)c(F)c2)C3)cc1 [Example 86, (S)-6-(3,4-difluorophenyl)-N-(4-(2-(2-methoxyethylamino)ethyl)phenyl)-5,6-dihydrobenzo[h]quinazolin-2-amine hydrochloride]	0.267 µM	5.13 µM	
N#Cc1cccc(NC(=O)N2CCC3(CC2)Cc2cnc(Nc4ccc(N5CCNCC5)cc4)nc2-c2ccccc23)c1 [Example 412, N-(3-cyanophenyl)-2-[(4-piperazin-1-ylphenyl)amino]-1′H,5H-spiro[benzo[h]quinazoline-6,4′-piperidine]-1′-carboxamide]			MTS cell kill data (% inhibition) NCI-H1299 [3]: A (A = 80-100% inhibition); MTS cell kill data (% inhibition) MDA-MB-231 [4]: A (A = 80-100% inhibition); MTS cell kill data (% inhibition) KATO III [5]: A (A = 80-100% inhibition); MTS cell kill data (% inhibition) DLD-1 [6]: A (A = 80-100% inhibition); MTS cell kill data (% inhibition) PACA-2 [7]: A (A = 80-100% inhibition)
CN1CCN(CCCNc2ncc3c(n2)-c2ccccc2C(c2ccc(NCc4ccc5c(c4)CCO5)cc2)C3)CC1 (centres unmarked) [Example 572, 6-{4-[(2,3-dihydro-1-benzofuran-5-ylmethyl)amino]phenyl}-N-[3-(4-methylpiperazin-1-yl)propyl]-5,6-dihydrobenzo[h]quinazolin-2-amine]			MTS cell kill data (% inhibition) NCI-H1299 [3]: A (A = 80-100% inhibition); MTS cell kill data (% inhibition) MDA-MB-231 [4]: A (A = 80-100% inhibition); MTS cell kill data (% inhibition) KATO III [5]: A (A = 80-100% inhibition); MTS cell kill data (% inhibition) DLD-1 [6]: A (A = 80-100% inhibition); MTS cell kill data (% inhibition) PACA-2 [7]: A (A = 80-100% inhibition)
CCCCN(C)CCc1ccc(Nc2ncc3c(n2)-c2ccccc2[C@H](c2ccc(Cl)c(Cl)c2)C3)cc1 [Example 105, (S)-N-(4-(2-(butyl(methyl)amino)ethyl)phenyl)-6-(3,4-dichlorophenyl)-5,6-dihydrobenzo[h]quinazolin-2-amine hydrochloride salt]	0.499 µM	5.03 µM	
Cc1ccc(F)c(CNc2ccc(C3Cc4cnc(NCCCN5CCN(C)CC5)nc4-c4ccccc43)cc2)c1 (centres unmarked) [Example 570, 6-{4-[(2-fluoro-5-methylbenzyl)amino]phenyl}-N-[3-(4-methylpiperazin-1-yl)propyl]-5,6-dihydrobenzo[h]quinazolin-2-amine]			MTS cell kill data (% inhibition) NCI-H1299 [3]: A (A = 80-100% inhibition); MTS cell kill data (% inhibition) MDA-MB-231 [4]: A (A = 80-100% inhibition); MTS cell kill data (% inhibition) KATO III [5]: A (A = 80-100% inhibition); MTS cell kill data (% inhibition) DLD-1 [6]: A (A = 80-100% inhibition); MTS cell kill data (% inhibition) PACA-2 [7]: A (A = 80-100% inhibition)
CN(CCc1ccccc1)CCc1ccc(Nc2ncc3c(n2)-c2ccccc2[C@H](c2ccccc2F)C3)cc1 [Example 93, (R)-6-(2-fluorophenyl)-N-(4-(2-(methyl(phenethyl)amino)ethyl)phenyl)-5,6-dihydrobenzo[h]quinazolin-2-amine hydrochloride salt]	0.296 µM	3.25 µM	
Brc1cccc([C@@H]2Cc3cnc(Nc4ccc(CCN5CCCCC5)cc4)nc3-c3ccccc32)c1 [Example 78, (S)-6-(3-bromophenyl)-N-(4-(2-(piperidin-1-yl)ethyl)phenyl)-5,6-dihydrobenzo[h]quinazolin-2-amine hydrochloride]		4.85 µM	
CCCCN(C)CCc1ccc(Nc2ncc3c(n2)-c2ccccc2[C@@H](c2ccc(Br)cc2)C3)cc1 [Example 107, (R)-6-(4-bromophenyl)-N-(4-(2-(butyl(methyl)amino)ethyl)phenyl)-5,6-dihydrobenzo[h]quinazolin-2-amine hydrochloride salt]	0.423 µM		
OCCc1cc(Nc2ncc3c(n2)-c2ccccc2[C@H](c2ccccc2F)C3)ccc1F [Example 169]	0.327 µM		
COCCN1CCN(CCc2ccc(Nc3ncc4c(n3)-c3ccccc3[C@H](c3ccc(F)cc3)C4)cc2)CC1 [Example 100, (S)-6-(4-fluorophenyl)-N-(4-(2-(4-(2-methoxyethyl)piperazin-1-yl)ethyl)phenyl)-5,6-dihydrobenzo[h]quinazolin-2-amine]		7.36 µM	melting point: 195 to 198 °C
CCCCN(C)CCc1ccc(Nc2ncc3c(n2)-c2ccccc2[C@H](c2ccc(F)cc2)C3)cc1 [Example 99, (S)-N-(4-(2-(butyl(methyl)amino)ethyl)phenyl)-6-(4-fluorophenyl)-5,6-dihydrobenzo[h]quinazolin-2-amine]		6.16 µM	
COCCN1CCN(CCc2ccc(Nc3ncc4c(n3)-c3ccccc3[C@H](c3ccc(Br)cc3)C4)cc2)CC1 [Example 97, (S)-6-(4-bromophenyl)-N-(4-(2-(4-(2-methoxyethyl)piperazin-1-yl)ethyl)phenyl)-5,6-dihydrobenzo[h]quinazolin-2-amine hydrochloride salt]		4.2 µM	

The remaining molecules from weak to strong by IC50 [1], led by results:

IC50 [1]	SMILES	IC50 [2]	further results
0.26 µM	CN(CCc1ccc(Nc2ncc3c(n2)-c2ccccc2[C@H](c2ccc(F)cc2)C3)cc1)C1CCCCC1 [Example 102, (S)-N-(4-(2-(cyclohexyl(methyl)amino)ethyl)phenyl)-6-(4-fluorophenyl)-5,6-dihydrobenzo[h]quinazolin-2-amine]	3.22 µM	
0.24 µM	CN(CCc1ccc(Nc2ncc3c(n2)-c2ccccc2[C@H](c2ccccc2F)C3)cc1)C1CCCCC1 [Example 95, (R)-N-(4-(2-(cyclohexyl(methyl)amino)ethyl)phenyl)-6-(2-fluorophenyl)-5,6-dihydrobenzo[h]quinazolin-2-amine]	1.13 µM	
0.211 µM	COCCN1CCN(CCc2ccc(Nc3ncc4c(n3)-c3ccccc3[C@H](c3ccc(Cl)c(Cl)c3)C4)cc2)CC1 [Example 115, (S)-6-(3,4-dichlorophenyl)-N-(4-(2-(4-(2-methoxyethyl)piperazin-1-yl)ethyl)phenyl)-5,6-dihydrobenzo[h]quinazolin-2-amine hydrochloride]	3.03 µM	
0.178 µM	Brc1ccc([C@@H]2Cc3cnc(Nc4ccc(CCN5CCCCC5)cc4)nc3-c3ccccc32)cc1 [Example 103, (S)-6-(4-bromophenyl)-N-(4-(2-(piperidin-1-yl)ethyl)phenyl)-5,6-dihydrobenzo[h]quinazolin-2-amine hydrochloride salt]	3.57 µM	
0.177 µM	Fc1ccc([C@@H]2Cc3cnc(Nc4ccc(CCN5CCCCC5)cc4)nc3-c3ccccc32)cc1 [Example 101, (S)-6-(4-fluorophenyl)-N-(4-(2-(piperidin-1-yl)ethyl)phenyl)-5,6-dihydrobenzo[h]quinazolin-2-amine]	4.03 µM	melting point: 185 to 188 °C
0.118 µM	COCCN1CCN(CCc2ccc(Nc3ncc4c(n3)-c3ccccc3[C@H](c3cccc(Br)c3)C4)cc2)CC1 [Example 77, (S)-6-(3-bromophenyl)-N-(4-(2-(4-(2-methoxyethyl)piperazin-1-yl)ethyl)phenyl)-5,6-dihydrobenzo[h]quinazolin-2-amine hydrochloride]	4.47 µM	
0.109 µM	OCc1cccc(Nc2ncc3c(n2)-c2ccccc2[C@H](c2ccccc2F)C3)c1 [Example 176, (R)-(3-(6-(2-fluorophenyl)-5,6-dihydrobenzo[h]quinazolin-2-ylamino)phenyl)methanol]		melting point: 158 to 159 °C
0.0922 µM	CCCCN(C)CCc1cc(Nc2ncc3c(n2)-c2ccccc2[C@H](c2ccccc2F)C3)ccc1F [Example 172, (R)-N-(3-(2-(butyl(methyl)amino)ethyl)-4-fluorophenyl)-6-(2-fluorophenyl)-5,6-dihydrobenzo[h]quinazolin-2-amine hydrochloride salt]		
0.0359 µM	COCCNCCc1cc(Nc2ncc3c(n2)-c2ccccc2[C@H](c2ccccc2F)C3)ccc1F [Example 173, (R)-N-(4-fluoro-3-(2-(2-methoxyethylamino)ethyl)phenyl)-6-(2-fluorophenyl)-5,6-dihydrobenzo[h]quinazolin-2-amine hydrochloride salt]	0.519 µM	
0.0355 µM	CCCCNCCc1cc(Nc2ncc3c(n2)-c2ccccc2[C@H](c2ccccc2F)C3)ccc1F [Example 171, (R)-N-(3-(2-(butylamino)ethyl)-4-fluorophenyl)-6-(2-fluorophenyl)-5,6-dihydrobenzo[h]quinazolin-2-amine hydrochloride salt]		
0.00999 µM	COCCNCCc1ccc(Nc2ncc3c(n2)-c2ccccc2[C@H](c2ccccc2F)C3)cc1 [Example 94, (R)-6-(2-fluorophenyl)-N-(4-(2-(2-methoxyethylamino)ethyl)phenyl)-5,6-dihydrobenzo[h]quinazolin-2-amine hydrochloride salt]	0.895 µM	
